Data on 1 compound can be found in US12439920B2, “Pyridine n-oxide compound and pest control agent” (Nippon Soda Co., Ltd., priority 2019, dated 2025).

Where only a bound is given, the exact number is not on record here.

What all share (type): in vivo
The test system of one assay is Mythimna separata. As to the kind of experiment: Test of efficacy on Mythimna separata (treated artificial feed). Particulars: second instar larvae, 1 μl of emulsion (I) (5% active ingredient) in 0.8 g artificial feed, fifth day, 25° C. On the procedure: 5 parts of the compound of the present invention, 93.6 parts of dimethylformamide, and 1.4 parts of polyoxyethylene alkyl aryl ether were mixed and dissolved to prepare emulsion (I) containing 5% of the active ingredient. For a control, 93.6 parts of dimethylformamide and 1.4 parts of polyoxyethylene alkyl aryl ether were mixed and dissolved to prepare emulsion (II). An insecticidal rate was calculated according to the following expression: Insecticidal rate (%)=(The number of dead insects/The number of tested insects)×100 A control rate was calculated according to the following expression: Control rate (%)={1−(Nt)/(Nc)}×100 • Nc: The number of parasites in an untreated plot • Nt: The number of parasites in a spray treated plot 0.8 g of commercially available artificial feed (Insecta LFS, manufactured by Nosan Corp.) and 1 μl of the emulsion (I) were well mixed to obtain test feed. A plastic test container (capacity: 1.4 ml) was packed with 0.2 g of the test feed per treatment plot. Then, two second instar larvae of Mythimna separata were inoculated to each treatment plot. A plastic lid was put on the test container so as to prevent escape of the second instar larvae of Mythimna separata. The container was placed in a thermostat chamber of 25° C. On the fifth day, the insecticidal rate and the food intake were examined. The test was conducted in duplicate. […]

For assay [1], the system named is Plutella xylostella. The experiment in a line: Test of efficacy on Plutella xylostella (cabbage leaf dip). The following applies: 125 ppm; cabbage leaves dipped 30 seconds; second instar larvae; after 3 days. On the procedure: 5 parts of the compound of the present invention, 93.6 parts of dimethylformamide, and 1.4 parts of polyoxyethylene alkyl aryl ether were mixed and dissolved to prepare emulsion (I) containing 5% of the active ingredient. An insecticidal rate was calculated according to the following expression: Insecticidal rate (%)=(The number of dead insects/The number of tested insects)×100 A control rate was calculated according to the following expression: Control rate (%)={1−(Nt)/(Nc)}×100 • Nc: The number of parasites in an untreated plot • Nt: The number of parasites in a spray treated plot The emulsion (I) was diluted with water such that the concentration of the compound of the present invention was 125 ppm. Cabbage leaves were dipped in the dilution for 30 seconds. The resulting cabbage leaves were placed in a petri dish. Five second instar larvae of Plutella xylostella were released thereto. The petri dish was placed in a thermostat chamber having a temperature of 25° C. and a humidity of 60%. Life and death were determined after 3 days from the release of the insects, and the insecticidal rate was calculated. The test was conducted in duplicate.

In another assay the test system is Aphis craccivora. As to the kind of experiment: Test of efficacy on Aphis craccivora (spray on black-eyed peas). Particulars: 125 ppm; sprayed; nymphs on black-eyed peas; after 4 days. On the procedure: (§1) 5 parts of the compound of the present invention, 93.6 parts of dimethylformamide, and 1.4 parts of polyoxyethylene alkyl aryl ether were mixed and dissolved to prepare emulsion (I) containing 5% of the active ingredient.
(§2) An insecticidal rate was calculated according to the following expression: Insecticidal rate (%)=(The number of dead insects/The number of tested insects)×100 A control rate was calculated according to the following expression: Control rate (%)={1−(Nt)/(Nc)}×100 • Nc: The number of parasites in an untreated plot • Nt: The number of parasites in a spray treated plot
Seedlings of black-eyed peas were raised in 10-cm pots. Aphis craccivora nymphs were inoculated onto primary leaves. The emulsion (I) was diluted with water such that the concentration of the compound of the present invention was 125 ppm. The dilution was sprayed to the black-eyed peas parasitized by the Aphis craccivora nymphs. The black-eyed peas were placed in a thermostat chamber having a temperature of 25° C. and a humidity of 60%. Life and death of Aphis craccivora were determined after 4 days from the spraying, and the insecticidal rate was calculated. The test was conducted in duplicate.

Another assay has as its system Aphis gossypii. As to the kind of experiment: Test of efficacy on Aphis gossypii (spray on cucumbers). Particulars: 125 ppm; sprayed; first instar larvae on cucumbers; after 5 days. On the procedure:
5 parts of the compound of the present invention, 93.6 parts of dimethylformamide, and 1.4 parts of polyoxyethylene alkyl aryl ether were mixed and dissolved to prepare emulsion (I) containing 5% of the active ingredient. An insecticidal rate was calculated according to the following expression: Insecticidal rate (%)=(The number of dead insects/The number of tested insects)×100 A control rate was calculated according to the following expression: Control rate (%)={1−(Nt)/(Nc)}×100 • Nc: The number of parasites in an untreated plot • Nt: The number of parasites in a spray treated plot Cucumbers were sown in a 10-cm pot. An Aphis gossypii female adult was released to the cucumbers after 10 days from sprouting. On the next day, born first instar larvae were left, and the female adult was removed. Emulsion (I) was diluted with water such that the concentration of the compound of the present invention was 125 ppm. The dilution was sprayed to the cucumbers. The cucumbers were placed in a thermostat chamber having a temperature of 25° C. and a humidity of 60%. Life and death of Aphis gossypii were determined after 5 days, and the insecticidal rate was calculated.

The subject of assay [2] is Phyllotreta striolata adults. The experiment in a line: Test of efficacy on Phyllotreta striolata (spray on Qing geng cai seedlings). Particulars: 125 ppm, sprayed on Qing geng cai seedlings, after 7 days. On the procedure:
as §1, §2
The emulsion (I) was diluted with water such that the concentration of the compound of the present invention was 125 ppm to prepare a test chemical. The dilution was sprayed to Qing geng cai seedlings (at the seventh true leaf stage) planted in 10-cm pots. The Qing geng cai seedlings were dried in air and then placed in a plastic cup. Ten Phyllotreta striolata adults were released thereto. The plastic cup was stored in a thermostat chamber having a temperature of 25° C. and a humidity of 65%. Life and death were determined after 7 days from the release of the insects, and the insecticidal rate was calculated. The test was conducted in duplicate.

The next assay concerns Musca domestica. As to the kind of experiment: Test of efficacy on Musca domestica (treated lump sugar). Particulars: 100 ppm on lump sugar; female adults; after 24 hours. On the procedure:
as §2
The compound of the present invention was diluted with acetone, and the dilution was added dropwise to 1 g of lump sugar such that the concentration was 100 ppm. The lump sugar was placed in a plastic cup, ten Musca domestica female adults were released, and a lid was put on the cup. The plastic cup was stored at 25° C. Life and death were determined after 24 hours from the release of the insects, and the insecticidal rate was calculated. The test was conducted in duplicate.

For assay [3], the system named is Plutella xylostella. The experiment in a line: Test of soil irrigation treatment against Plutella xylostella. The following applies: investigated after 3 days; for Control rate % 21 days after: first instar larvae inoculated 21 days after transplant; for Control rate % 28 days after: first instar larvae inoculated 28 days after transplant. On the procedure:
5 parts of the compound of the present invention, 93.6 parts of dimethylformamide, and 1.4 parts of polyoxyethylene alkyl aryl ether were mixed and dissolved to prepare emulsion (I) containing 5% of the active ingredient. An insecticidal rate was calculated according to the following expression: Insecticidal rate (%)=(The number of dead insects/The number of tested insects)×100 A control rate was calculated according to the following expression: Control rate (%)={1−(Nt)/(Nc)}×100 • Nc: The number of parasites in an untreated plot • Nt: The number of parasites in a spray treated plot The emulsion (I) was diluted with water such that the concentration of the compound of the present invention was 500 ppm or 250 ppm. Then, 500 mL of the dilution was subjected to irrigation treatment per 128-hole cell tray in which cabbage seedlings were planted. The cell seedlings were transplanted to No. 4 pots and maintained in a thermostat chamber having a temperature of 25° C. and a humidity of 65%. Then, 50 first instar larvae of Plutella xylostella were inoculated on the whole of a cabbage after 21 days and 28 days from the transplant, respectively. The life and the death of Plutella xylostella were investigated after 3 days, and a control rate was calculated according to the following expression. The test was conducted in quadruplicate. Control rate (%)={1−(Nt)/(Nc)}×100 • Nc: The number of parasites in an untreated plot • Nt: The number of parasites in a spray treated plot

Where [4] appears, read: 250 ppm soil irrigation of cabbage seedlings.
Where [5] appears, read: 500 ppm soil irrigation of cabbage seedlings.

Turning to `CCS(=O)(=O)c1cc(C2CC2)c[n+]([O-])c1-c1nc2cc(S(=O)(=O)C(F)(F)F)ccc2o1` [A-1, 5-cyclopropyl-3-(ethylsulfonyl)-2-(5-((trifluoromethyl)sulfonyl)benzo[d]oxazol-2-yl)pyridine 1-oxide], the insecticidal rate in the assay on Mythimna separata (stated as alternative to food intake ('or')) was 100%; with Plutella xylostella [1], ≥ 80%; with Aphis craccivora, ≥ 80%; in the assay on Aphis gossypii, ≥ 80%; in assay [2], ≥ 80%; in the assay on Musca domestica, ≥ 80%. Also, the “food intake as compared with the control plot” value in the assay on Mythimna separata (stated as alternative to insecticidal rate ('or')) is recorded as ≤ 10%. In addition, the “Control rate % 21 days after” value came to 98% with Plutella xylostella [3] (setting [4]) and 100% in the assay on Plutella xylostella [3] (setting [5]). Also, the “Control rate % 28 days after” value in the assay on Plutella xylostella [3] (setting [4]) is 99%; in the assay on Plutella xylostella [3] (setting [5]) it was 100%.
